Legend:
[1] = Photochromic characteristics of 2 mm molded thermosetting resin piece containing the spiroxazine; type: physicochemical
Protocol: The compound synthesized in Example 1, which was represented by the following formula: [drawing 286] was dissolved and dispersed in polymethyl methacrylate with the aid of benzene, and a cast film was prepared on a slide glass sheet (11.2 cm×3.7 cm) so that the concentration of the compound in the film was 1.0×10^-4 mol/g and the thickness of the film was 0.1 mm. The photochromic film was irradiated with rays of a mercury lamp (SHL-100 supplied by Toshiba) located 10 cm apart from the film at 35° C.+1° C. for 60 seconds to effect coloration in the film, and the photochromic characteristics were examined with respect to items described below.
Maximum absorption wavelength (λmax):
The maximum absorption wavelength λmax of the colored film was determined by using a spectrophotometer (220 A supplied by Hitachi).
After 60 seconds' irradiation under the above-mentioned conditions, the absorbance at the maximum absorption wavelength was measured.
The absorbance at the maximum absorption wavelength of the unirradiated film was measured. Half-value period t^1/2 :
After 60 seconds' irradiation, the time required for reduction of the absorbance of the film to 1/2 of [ε(60 seconds)-ε(0 second)] was measured.
0.4 parts by weight of the spiroxazine synthesized in Example 1 was added to a composition of 70 parts by weight of chlorostyrene with 30 parts by weight of 2,2-bis(3,5-dibromo-4-methacryloyloxyethoxyphenyl) propane. One part by weight of perbutyl ND was added to the composition as an initiator of radical polymerization and was sufficiently mixed. The mixture liquid was casted into a mold comprising a glass plate and a gasket made of an ethylene-vinyl acetate copolymer and was polymerized in the mold. The mold was placed in an air oven. Polymerization was carried out by gradually elevating the temperature of the air oven from 30° C. to 90° C. for 18 hours and keeping it at 90° C. over a period of 2 hours. After the termination of the polymerization, the mold was removed from the air oven. After the mold was allowed to cool, the polymer molded piece was removed from the glass of the mold.
The photochromic characteristics of the obtained molded piece having a thickness of 2 mm was measured in the same method as Example 65.
Excepting that the kinds and amounts of the monomers and the spiroxazine used in Example 129 were changed and polymerization was carried out by a known means depending on the monomers, Examples 130 to 144 are identical with Example 129.

[2] = Photochromic characteristics of cast polymethyl methacrylate film (coloration under mercury lamp, fading); type: physicochemical; settings: PMMA film, 1.0×10^-4 mol/g, 0.1 mm, 35° C.
[3] = Example 129: BMDBP/c1-st (30/70), compound 0.4 parts, 2 mm
[4] = Example 130: ADC (100), compound 0.001 parts
[5] = Example 131: TMP-TAC(100), compound 0.4 parts
[6] = Example 132: BADBP/DAP (60/40), compound 0.4 parts
[7] = Example 133: BMDBP/st (50/50), compound 10 parts
[8] = Example 134: DCIPF/st (70/30), compound 70 parts
[9] = Example 135: EGDMA/st (50/50), compound 30 parts
[10] = Example 136: monomer composition drawn as drawing 288, compound 1.0 parts
[11] = Example 137: monomer composition drawn as drawing 289, compound 0.6 parts
[12] = Example 138: DVB/PETTP(60/40), compound 0.03 parts
[13] = Example 139: XIC/DME (58/42), compound 0.2 parts
[14] = Example 140: XIC/HPA/DVB (10/50/40), compound 0.4 parts
[15] = Example 141: MMA/DEGDMA (70/30), compound 0.1 parts
[16] = Example 142: BADBPO/TBBM/DAP (50/30/20), compound 0.1 parts
[17] = Example 143: HEMA/XIC/BMA (30/20/50), compound 0.1 parts
[18] = Example 144: DEGDMA/BMA (40/60), compound 0.1 parts

CN1c2ccccc2C2(CCCCC2)C12C=Nc1ccc3ccccc3c1O2 (stereo not drawn) [Compound 1]
t1/2 [1, 3]: 20 s
ε(60 sec)-ε(0 sec) [1, 3]: 1.6
λmax [1, 3]: 604 nm
t1/2 [1, 4]: 24 s
ε(60 sec)-ε(0 sec) [1, 4]: 0.9
λmax [1, 4]: 607 nm
t1/2 [1, 5]: 28 s
ε(60 sec)-ε(0 sec) [1, 5]: 1.5
λmax [1, 5]: 607 nm
t1/2 [1, 6]: 21 s
ε(60 sec)-ε(0 sec) [1, 6]: 1.5
λmax [1, 6]: 606 nm
t1/2 [1, 7]: 20 s
ε(60 sec)-ε(0 sec) [1, 7]: 1.7
λmax [1, 7]: 604 nm
t1/2 [1, 8]: 18 s
ε(60 sec)-ε(0 sec) [1, 8]: 1.8
λmax [1, 8]: 604 nm
t1/2 [1, 9]: 19 s
ε(60 sec)-ε(0 sec) [1, 9]: 1.7
λmax [1, 9]: 604 nm
t1/2 [1, 10]: 20 s
ε(60 sec)-ε(0 sec) [1, 10]: 1.6
λmax [1, 10]: 601 nm
t1/2 [1, 11]: 22 s
ε(60 sec)-ε(0 sec) [1, 11]: 1.6
λmax [1, 11]: 601 nm
t1/2 [1, 12]: 22 s
ε(60 sec)-ε(0 sec) [1, 12]: 1.5
λmax [1, 12]: 606 nm
t1/2 [1, 13]: 19 s
ε(60 sec)-ε(0 sec) [1, 13]: 1.5
λmax [1, 13]: 604 nm
t1/2 [1, 14]: 19 s
ε(60 sec)-ε(0 sec) [1, 14]: 1.6
λmax [1, 14]: 604 nm
t1/2 [1, 15]: 18 s
ε(60 sec)-ε(0 sec) [1, 15]: 1.6
λmax [1, 15]: 601 nm
t1/2 [1, 16]: 23 s
ε(60 sec)-ε(0 sec) [1, 16]: 1.6
λmax [1, 16]: 606 nm
t1/2 [1, 17]: 22 s
ε(60 sec)-ε(0 sec) [1, 17]: 1.6
λmax [1, 17]: 601 nm
t1/2 [1, 18]: 19 s
ε(60 sec)-ε(0 sec) [1, 18]: 1.6
λmax [1, 18]: 601 nm
t1/2 (half-value period of absorbance after irradiation) ([2]; after 60 seconds' irradiation): 18 s
λ max (maximum absorption wavelength of the colored film) ([2]; mercury lamp 60 seconds): 601
ε (60 seconds)-ε (0 second) ([2]; mercury lamp 60 seconds, absorbance at λmax): 1.4

Source: patent publication US5246989A, “Photochromic compound, composition and use thereof” (priority 1990, dated 1993)
